According to the NIST ThermoML archive (doi:10.1016/j.fluid.2013.11.031):
Numbers after ± are expanded uncertainties.

Conditions: Liquid, Vibrating tube method

CCCO [propan-1-ol]
mass density [kg/m3]
Conditions	293.15 K	313.15 K	333.15 K	353.15 K
100 kPa	803.8 ± 0.8	787.1 ± 0.8	769.9 ± 0.8	752 ± 0.8
10000 kPa	811.3 ± 0.8	795.5 ± 0.8	780 ± 0.8	762.5 ± 0.8
20000 kPa	818.1 ± 0.8	803 ± 0.8	788.3 ± 0.8	771.8 ± 0.8
30000 kPa	824.4 ± 0.9	810 ± 0.9	795.7 ± 0.9	780.2 ± 0.9
40000 kPa	830 ± 0.9	816.4 ± 0.9	802.5 ± 0.9	787.9 ± 0.9
50000 kPa	835.6 ± 0.9	822.3 ± 0.9	809 ± 0.9	795 ± 0.9
60000 kPa	841 ± 0.9	827.9 ± 0.9	815 ± 1	801.4 ± 1
70000 kPa	845.9 ± 1	833.2 ± 1	820.6 ± 1	807.7 ± 1
80000 kPa	850.7 ± 1	838.3 ± 1	826.2 ± 1	813.4 ± 1
90000 kPa	855.2 ± 1	843 ± 1	831.2 ± 1	818.7 ± 1.1
100000 kPa	859.6 ± 1	847.9 ± 1.1	836.3 ± 1.1	823.8 ± 1.1
110000 kPa	863.7 ± 1.1	852.3 ± 1.1	840.9 ± 1.1	828.8 ± 1.1
120000 kPa	867.8 ± 1.1	856.6 ± 1.1	845.3 ± 1.1	833.5 ± 1.2
130000 kPa	871.6 ± 1.1	860.7 ± 1.1	849.6 ± 1.2	837.9 ± 1.2
140000 kPa	875.3 ± 1.1	864.6 ± 1.1	853.6 ± 1.2	842.1 ± 1.2
